Assays:
[1] = tested on: T47D human breast cancer cells; assay: Cell proliferation assay, cell counting; format: cell-based; conditions: for proliferation of T47D cells relative to untreated control cultures: FIGS. 5A-B; for shape of dose response curve, T-47D cell number: FIG. 4
Procedure: Cell proliferation assays. hPRLA was tested for its ability to inhibit breast cancer cell proliferation in tissue culture. The human breast cancer cells were grown in corresponding culture media according to ATCC recommendations. Cells were maintained at 37° C. in a humidified atmosphere of 5% CO2 in air. The assay conditions were essentially as described by Ginsburg and Vonderharr (1995, Cancer Res. 55:2591–2595). For individual growth experiments, cells were plated in 12 well culture plates at a density of approximately 2×10^4 /ml, 1 ml/ well. Cells were then allowed to attach for one day (T-47D, MCF-7, HTB19, and HTB20 cells, except for HTB 123, which is a suspension cells), then the overlying media was removed and changed to serum-free conditions with media containing ITS^+ (insulin-transferring-selenium-BSA-linoleic acid culture supplement; Collaborative Research Bedford, Mass.). Varying concentrations of hPRL alone or in combination with hPRLA were introduced. After an additional three days in culture, cells were harvested after brief trypsinization and counted in a cell counter.

[2] = tested on: tyrosine phosphorylation of STAT protein; conditions: literature; cited from earlier work
[3] = tested on: MCF-7 cells; assay: TUNEL assay, MCF-7; format: cell-based, human; conditions: 4-OH-Tamoxifen 1 μM, 24 hours
Procedure: (§1) Cell Culture. T-47D cells obtained from ATCC were grown in RPMI 1640 (phenol red free), supplemented with 10% FBS (GIBCO BRL). BT-474 cells were grown in RPMI 1640 medium (phenol red free) supplemented with 10% FBS and ATCC recommended supplements. MCF-7 cells were grown in DMEM medium (phenol red free), supplemented with 10% FBS. The cells were grown at 37° C. in a humid atmosphere in the presence of 5% CO2. The MDA-MB-134 cells were grown in Leibovitz's L-15 medium supplemented with 20% FBS and grown in CO2 free atmosphere. The breast cancer cells were trypsinized (0.02% Trypsin—EDTA) and grown in their respective media (phenol red free) supplemented with 10% CSS (Charcoal stripped serum) for a week. Subsequently the cells were trypsinized again and plated onto an 8 chambered slide system (Lab Tek II) at a confluence of 60–70% per chamber. The next day treatments were performed on the breast cancer cells using their respective media(phenol red free), supplemented with 1% CSS. The MDA-MB-134 VI cells were grown in phenol red containing medium, but with the same serum conditions as the other breast cancer cells.
Terminal deoxynucleotidly transferase mediated dUTP nick end labeling (TUNEL) assay. Nicks of the fragmented DNA are labeled at their 3-OH ends. The fluorescein-labeled dUTP is incorporated at the 3-OH ends by using the enzyme terminal deoxynucleotidyl transferase. […]

[4] = tested on: T47-D human breast cancer cells; assay: 96 well cell proliferation assay with conditioned media (MTS-PMS); format: cell-based
Procedure: HPRLG129R Conditioned Media. The assay conditions were modified from that described by Ginsburg and Vonderharr (1995, Cancer Res. 55:2591–2595). T47-D cells were trypsinized and passed into 96 well plates in RPMI-1640 media containing 1% DCC-FCS in a volume of 100 μl/well. The optimal cell number/well for each cell line was pre-determined after titration assay. For T47-D cells, 15,000 cells/well were plated. The cells were allowed to settle and adhere overnight (12–18 hours) and subsequently various concentrations of either hPRL, hRPL-G129R, E2 or 4-OH-Tamoxifen in a total volume of 100 μl of culture media were added. Purified hPRL (kindly provided by Dr. Parlow, National Hormone & Pituitary Program, NIH) was used as a positive control for hPRL produced from stable L cells. Cells were incubated for an additional 96 hours at 37° C. in a humidified 5% CO2 incubator. After incubation, MTS-PMS solution (Cell Titer 96 Aqueous kit, Promega Corp.) was added to each well, following the manufacturer's instructions. Plates were read at 490 nm using a BIO-RAD benchmark microplate reader. The experiments were carried out in triplicates and repeated three to six times for each cell line.

[5] = tested on: BT-474 cells; assay: TUNEL assay, BT-474; format: cell-based, human; conditions: 4-OH-Tamoxifen 1 μM, 24 hours
Procedure: as §1
(§2) Terminal deoxynucleotidly transferase mediated dUTP nick end labeling (TUNEL) assay. Nicks of the fragmented DNA are labeled at their 3-OH ends. The fluorescein-labeled dUTP is incorporated at the 3-OH ends by using the enzyme terminal deoxynucleotidyl transferase. After the assigned period of treatment the chambers were dismantled as per the manufacturer's instructions and the TUNEL assay (Apoptosis detection system, Fluorescein- Promega) was performed as per the manufacturer's instructions. The slide was examined under a FITC filter using an Olympus IX 70 microscope system.

[6] = tested on: T-47D human breast cancer cells; assay: TUNEL assay, T-47D; format: cell-based
Procedure: as §1, §2

[7] = tested on: hGH receptor on T-47D and HTB123 cells; assay: Competitive radioreceptor binding assay; set-up: species or system human; conditions: T-47D and HTB123 compared to leukemia, lymphoma and retinoblastoma cells
[8] = tested on: T47D human breast cancer cells; assay: Mixed cell culture assay with transfected L cells, T47D; format: cell-based; conditions: co-culture with transfected L cells, 24 h to five days
Text: For certain experiments, a mixed cell culture assay was used, diagramatically represented in FIG. 6. In this assay, breast cancer cells were co-cultured with expressor cells which had been transfected with nucleic acid encoding PRL or a PRL variant and expressing those recombinant proteins. By varying the number of expressor cells, the amount of PRL or PRL variant present in the mixed cell culture was increased or decreased. […] In certain wells, which served as a control, no expresser cells were added. Then, increasing numbers of expresser cells (transfected L cells expressing either HPRL (L-PRL) or hPRLA (L-PRLA)) were added to breast cancer cell-containing wells to create mixed cultures. The same numbers of expressor cells were cultured in parallel (without T47D cells) to serve as controls. After culturing under standard conditions for a period of time, the number of cells present in the wells was counted, and the number of L cells in the corresponding control culture was subtracted. The resulting number could then be compared to the number of T47D cells in the T47D control culture to evaluate the effects of the recombinant product on breast cancer cell proliferation.

[9] = tested on: tyrosine phosphorylation of STAT5 protein in T-47D human breast cancer cells; assay: hPRL induction of tyrosine phosphorylation of STAT5 protein (Example 8); format: cell-based; conditions: T-47D cells, 5 nM of hormone alone, Western blot FIG. 3
Text: Assay of hPRL induction of tyrosine phosphorylation of STAT5 protein. […] Tyrosyl phosphorylation of STAT 5 is a receptor mediated event and is thought to be an important step in ligand-induced signal transduction (Wakao et al., 1994, EMBO J. 13: 2182–2191; Kazansky et al., 1995, Mol. Endocrinol. 9:1598–1609; Waxman et al., 1995, J. Biol. Chem. 270:13262–13270). This assay was used to evaluate the ability of hPRL and hPRLA to inhibit induction of STAT 5 phosphorylation by wild type PRL.
Briefly, human breast cancer cells were plated in 12-well plates. After pre-incubation in serum-free DMEM for 2–3 hours, the cells were exposed to various concentration of hPRL and hPRLA in serum-free DMEM. The cells were incubated for 15 min at 37° C., washed once with PBS, and lysed in 300 μl lysis buffer (50 mM Tris-HCl, pH 6.8, 1% SDS, 1% β-mecaptoethanol, 0.1M DTT, 5% Sucrose, 100 uM Sodium Orthovanadate, and 0.6% bromphenol blue). Thirty microliters of cell lysates were subjected to 4–12.5% SDS-PAGE and immunoblot analysis using horse radish peroxidase (HRP)-conjugated anti-phosphotyrosine antibody PY20 and ECL reagent kit (Amersham, Ill.). Blots were then exposed to X-ray films and developed using standard procedures (Kodak, Rochester, N.Y.). This assay has been described in Chen et al., 1994, J. Biol. Chem. 269: 15892–15897; Chen et al., 1995, Endocrinol. 136:660–667; Wang et al., 1994, Proc. Natl. Acad. Sci. U.S.A. 91:1391–1395; Chen et al., 1995, Mol. Endocrinol. 9(3):292–302; Harding et al., 1996, J. Biol. Chem. 271(12):6708–6712.

CC/C(=C(\c1ccccc1)c1ccc(OCCN(C)C)cc1)c1ccccc1 [tamoxifen, reference compound]
proliferation of T47D cells relative to untreated control cultures [1]: comparable inhibitory effect

hGH-G120R: GH antagonist, variant of human GH with glycine at position 120 substituted with arginine
effect on GH induction of STAT protein phosphorylation [2]: inhibit GH induction of STAT protein phosphorylation in a dose dependent manner

estrogen [reference compound]
proliferation of T47D cells relative to untreated control cultures [1]: increased proliferation

CC/C(=C(\c1ccc(O)cc1)c1ccc(OCCN(C)C)cc1)c1ccccc1 [4-OH-Tamoxifen, reference compound]
induction of apoptosis [3]: did not induce apoptosis
inhibition of cell proliferation ([4]; 100 nM 4-OH-Tamoxifen alone): 15%
maximum inhibition by a single dose ([4]; 4-OH-Tamoxifen at 500 nM, T47-D): approximately 15 % of control
induction of apoptosis [5]: did not induce apoptosis
induction of apoptosis ([6]; 4-OH-Tamoxifen 1 μM, 24 hours): did not induce apoptosis

hGH: human growth hormone
hGH receptor specific binding [7]: minimum
shape of dose response curve, T-47D cell number [1]: bell shaped dose response curves

B1: hPRL: human prolactin, recombinant from transfected mouse L cells or purified from NIH (protein)
chain: LPICPGGAARCQVTLRDLFDRAVVLSHYIHNLSSEMFSEFDKRYTHGRGFITKAINSCHTSSLATPEDKEQAQQMNQKDFLSLIVSILRSWNEPLYHLVTEVRGMQEAPEAILSKAVEIEEQTKRLLEGMELIVSQVHPETKENEIYPVWSGLPSLQMADEESRLSAYYNLLHCLRRDSHKIDNYLKLLKCRIIHNNNC
T47D proliferation relative to untreated T47D cell cultures [8]: increase in T47D proliferation
induction of phosphorylation of STAT5 proteins [9]: induced
maximum response in the presence of E2 compared to hPRL alone ([4]; hPRL 100 ng/ml with 10 nM E2): more than tripled
maximum stimulation over basal levels ([4]; hPRL 250 ng/ml, single dose, four-day incubation): approximately 20%
effect on T47-D proliferation, dose response ([4]; single dose, four-day incubation): stimulated T47-D proliferation in a dose dependent manner
reversal of G129R-induced DNA fragmentation ([6]; 4:1 ratio (500 ng/ml hPRL, 125 ng/ml hPRL-G129R)): competitively reverse the DNA fragmentation
shape of dose response curve, T-47D cell number [1]: bell shaped dose response curves
proliferation of T47D cells relative to untreated control cultures [1]: increased proliferation

— patent US7115556B2, “Use of anti-prolactin agents to treat proliferative conditions” (Greenville Hospital System, priority 1998, dated 2006)
